Reference: patent US20110251158A1, “FULLERENE THERAPIES FOR INFLAMMATION AND INHIBITION OF BUILD-UP OF ARTERIAL PLAQUE” (Luna Innovations Incorporated, priority 2008, published 2011)
“And” between values parts separate entries of the source, which are not always exact repeats. Equal values may be shown once.

Legend:
Ames test = conditions: not shown
Source text: Taken together, the derivatives described herein are not cytotoxic to several cell lines tested and appear to have no acute in vivo cytotoxic effects.

[1] = tested on: E74-like factor 2 (ELF-2); assay: ELF-2 gene expression (microarray) in MC; type: cell-based, human; conditions: gene level
Procedure: Mast cells (1×10^7 cell/condition; each condition performed in triplicate) were incubated with or without fullerene derivatives as above and incubated with or without anti-FcεRI antibodies for 10 minutes, supernatants were removed (to remove pre-formed mediators), and fresh warm medium containing anti-FcεRI antibodies (14 ml) added for 2 hours. Cells were centrifuged, the supernatant and the pellet immediately frozen and microarray performed using the Human Whole Genome OneArray™ gene expression profiling service (Phalanx Biotech Group). Separate samples, assayed in parallel were lysed and protein expression analyzed by Western blotting or flow cytometry (CD45) as described in Kepley, C. L., Pfeiffer, J., Wilson, B. W., Schwartz, L. B., and Oliver, J. M. J. Leukocyte Biol. 64, 474-483 (1998).
In order to examine the genes most affected by fullerene derivative preincubation the resulting values were sorted and filtered the following way. First, the mean (±SD) of the six values from each condition for each of the 30,970 genes was calculated. Second, only normalized value intensities of >100 were included so that follow up detection of protein levels would be more likely to be successful. […]

Mast cells (MC) [2] = assay: Anti-FcεRI-induced GM-CSF cytokine production in MC; type: cell-based, human; conditions: maximum inhibition set to 100%
Procedure: (§1) MC are a component of the inflammatory response. As such, cultures of human Mast Cells can be used for screening the activity of different fullerene derivatives to evaluate their potential activity in animal models. In this example, human skin tissue was received from the Cooperative Human Tissue Network and MC purified and cultured as described in Kepley, C. L. Int. Arch. Allergy Immunol. 138, 29-39 (2005). The MC were cultured in media containing stem cell factor which is removed from the culture 24 hours prior to experimentation.
For activation, MC were suspended in fresh medium (without cytokines) and incubated for 16 hours with or without fullerene derivatives at 37° C. in a 6% CO2 incubator. […] The next morning, cells were washed and stimulated with anti-FcεRI Abs (3B4; 1 μg/ml) for 30 minutes (β-hexosaminidase) or overnight (GM-CSF) at 37° C. in a 6% CO2 incubator and mediator release measured as described in Zhao, W., Kepley, C. […]
(§2) Cells were cultured with fixed concentrations of a fullerene derivative (10 μg/ml; FIGS. 8A and 9A) or different concentrations (FIGS. 8B and 9B) for 16 h, washed and stimulated for 30 min (FIGS. 8A and 8B) or 24 hours (FIGS. 9A and 9B) with optimal concentrations of αanti-FcεRI Abs (3B4; 1 μg/ml). Cells were centrifuged and β-hexosaminidase release and GMCSF levels determined by ELISA.

ROS = assay: FcεRI-induced ROS (DCF) in MC; type: cell-based, human; conditions: 10 μg/mL overnight; anti-FcεRI 1 μg/mL
Procedure: MC were pre-treated with or without fullerene derivatives as above, washed with Tyrodes buffer supplemented with BSA, and incubated with Fura-2 AM (2 μM) for 30 minutes at 37° C. Cells were washed, stimulated with anti-FcεRI, and calcium flux measured in real time on a Perkin Elmer LS55 Spectrofluorometer. For ROS production, cells were exposed to fullerene derivatives as above. After washing, cells were re-suspended in X-Vivo medium containing 5 μM dichlorodihydrofluorescein (DCF) at 37° C. for 30 minutes, washed, and activation-induced changes in mean fluorescence was measured with excitation at 502 nm and emission at 523 nm for 15 minutes (19). The data is presented as fluorescence intensity of the 523 nm emission over time. All experiments were performed in triplicate and degranulation was measured in parallel.
Cells were incubated with or without fullerene derivative (10 μg/mL) overnight. The next day cells were challenged with anti-FcεRI (3B4; 1 μg/mL) and calcium stores release was determined by the 340/380 nm ratio (FIGS. 11A and 11B) and ROS measured by DCF detection at 523 nm (FIGS. 11C and 11D). FIGS. 11A and 11C contain cells incubated with the TGA fullerene derivative, and FIGS. 11B and 11D contain cells incubated with the Inos fullerene derivative (10 μg/mL). […]

mice = assay: Liver toxicity: serum ALT and AST activity after FD injection; type: in vivo; conditions: tail vein injection
Procedure: To examine potential toxicity, alanine aminotranferease (ALT) and aspartate aminotransferase (AST) were measured in serum. These enzymes leak out into the general circulation when the liver is injured. Mice were treated with or without 1000 μg/100 μl (50 times more than used for the in vivo study) of TGA or Inos by tail vein injection and i.p. After two and 14 days mice were sacrificed and blood, obtained by cardiac puncture. ALT and AST activity were measured as described in Booth, G., Newham, P., Barlow, R., Raines, S., Zheng, B., and Han, S. Autoimmunity 41, 512-521 (2008). Data is presented as an average of 4 (Untreated) or 4 (Treated) mice±Standard Deviation.

Mast cells (MC) [3] = assay: Anti-FcεRI-induced MC degranulation (β-hexosaminidase release); type: cell-based, human; conditions: for Mean percent degranulation, TGA + XL: TGA Treatment @ 10 μg/ml, Exp 1-5 and Average (±SD)
Procedure: as §1
For activation, MC were suspended in fresh medium (without cytokines) and incubated for 16 hours with or without fullerene derivatives at 37° C. in a 6% CO2 incubator. […] The next morning, cells were washed and stimulated with anti-FcεRI Abs (3B4; 1 μg/ml) for 30 minutes (β-hexosaminidase) or overnight (GM-CSF) at 37° C. in a 6% CO2 incubator and mediator release measured as described in Zhao, W., Kepley, C. L., Morel, P. A., Okumoto, L. M., Fukuoka, Y., and Schwartz, L. B. J Immunol. 177, 694-701 (2006). All MC mediator release studies were performed in triplicate.
as §2

C70-tetraglycolic acid [TGA]
mutagenic potential (Ames test): No mutagenic potential
ELF-2 downregulated [1]: 47%
IC50 (GMCSF-cytokine production) (Mast cells (MC) [2]): 3.3 (±0.6) μg/ml
FcεRI-induced ROS (ROS): inhibited
Alanine aminotransferase (ALT) Activity (mice; Day 2): 29.2
Aspartate aminotransferase (AST) Activity (mice; Day 2): 8.5
Alanine aminotransferase (ALT) Activity (mice; Day 14): 36.7
Aspartate aminotransferase (AST) Activity (mice; Day 14): 29.8
Mean percent degranulation, TGA + XL (Mast cells (MC) [3]): 52.7% and 39.1% and 50.1% and 53.4% and 40.1%
Mean percent degranulation, TGA + XL (Mast cells (MC) [3]; mean): 47.1 (±6.9) percent
IC50 (degranulation) (Mast cells (MC) [3]; maximum inhibition set to 100%): 10.9 (±3.5) μg/ml
